The text below walks through data of patent US20240216310A1, “Rapid Onset Therapeutic Anti-Depression Ketosis Enabled by D-BetaHydroxyButyric Acid Systems, Methods and Compounds for Psilocybin co-administration” (American Ketone Therapeutics LLC, priority 2022, published 2024).

For series [1] the following is noted: Phase 2b clinical trial reported by Compass Pathways; cited from earlier work.
The nature of series [2]: Preliminary data on anxiety and depression after D-BetaHydroxyButyric Acid administration. It is filed as in vivo, human. Particulars: individuals with mild to moderate depression, given in the absence of a salt or ester. From the text: Moreover, dietary interventions for ketogenic diet treatment of bipolar disorder are yielding compelling results. The administration of the natural form of D-BetaHydroxyButyric Acid as an exogenous compound has rapid onset and direct benefits to brain bioenergenics. […] The claimed form of D-BetaHydroxyButyric Acid is bioidentical to the natural form of ketone generated endogenously and chemically distinguishable from the artificial ‘ketone salt’ and synthetic ‘ketone ester’. This application discloses two primary embodiments for the treatment of psychiatric depressive disorders: the use of bioidentical or ‘free D-BetaHydroxyButyric Acid’ alone as well as in combination with Psilocybin derived pharmaceuticals.

Series [3] in a line: Continuous Ketone Meter (CKM) monitoring of body ketone levels and deep sleep. Particulars: 5 grams consumed 45 minutes prior to bedtime. It counts as in vivo, human. The source says:
FIG. 11 is a graphical illustration of continuous monitoring of body ketone levels resulting in improved deep sleep time due to enhanced D-BHB levels according to the claimed invention. It is noteworthy that consumption of even small amounts of free D-BetaHydroxyButyric Acid can give rise to therapeutic ketosis levels as measured by Continuous Ketone Meter (CKM). […] While free D-BetaHydroxyButyric Acid is not a sedative, even small amounts can greatly improve deep sleep quantity and quality. It is an intended and foreseeable embodiment application to increase deep sleep with free D-BetaHydroxyButyric Acid with the aim of improving mental health and anti-depression resiliency.

Series [4] is described as follows: Blood ketone levels by Abbott blood test strip after D-BHB oral drink. It is filed as in vivo, human. The source says:
FIG. 8 is a graphical illustration of D-BHB exogenous ketone blood levels. FIG. 8 details rapid ketosis confirmed by Abbott blood test strip after 15 g D-BHB with palatability agent administered by oral drink. Blood ketone levels document rise from 0.1 mmol/L to 2.7 mmol/L. By supplementing an individual with exogenous ketone preparations incorporating the natural D-Beta-HydroxyButyric Acid (D-BHB) optionally combined with a palatability agent, internal body ketone levels rapidly rise when directly compared with non-supplementing individuals. The ketone body D-BHB is first and foremost an energy source, which is directly and preferentially metabolized by the brain. D-BHB is also active as a signaling mechanism and neuro-inflammation reduction agent, resulting in broad and beneficial mental health related benefits.
FIG. 9 is a graphical illustration of D-BHB exogenous ketone blood levels. FIG. 9 details rapid ketosis within 45 minutes confirmed by Abbott blood test strip after 10 g D-BHB with palatability agent administered by oral drink. Blood ketone levels document rise from 0.2 mmol/L to 1.8 mmol/L and 0.6 mmol/L to 1.9 mmol/L in a variety of test subjects. FIG. 9 reinforces the fact that supplementation by utilizing free D only BetaHydroxyButyric Acid without ketone salt or ketone ester is a reliable, reproducible method and system for rapid ketone level increase for mental health protection and maintenance. While amounts of free D only BetaHydroxyButyric Acid taken for mental health anti-depression effects may vary, it is an anticipated preferred embodiment that levels are between 5 and 30 grams of D only BetaHydroxyButyric Acid taken as needed for optimum anti-depression effects. Alternate embodiments may include lower or higher amounts, however, experimental evidence has confirmed optimal administration in this range.

The nature of series [5]: Continuous glucose monitoring (Abbot Libre CGM) with carbohydrate challenge. It is filed as in vivo, human. Particulars: 10 g given 45 minutes before 50 g carbohydrate ingestion; compared with unsupplemented ingestion. The source says:
FIG. 10 is a graphical illustration of continuous monitoring of body glucose levels. FIG. 10 depicts continuous glucose monitoring levels with carbohydrate challenge documented by Abbot Libre Continuous Glucose Monitoring (CGM) device. In this illustrative embodiment, glucose levels from a 50 g carbohydrate ingestion are depicted unaided by free D-BetaHydroxyButyric Acid on the left and repeated the following day with two 50 g carbohydrate ingestions accompanied by 10 g free D-BetaHydroxyButyric Acid administered 45 minutes before the carbohydrate insult. The data is noteworthy in that while the equivalent amount of identical (nacho chip platter) carbohydrates were consumed, the rapid glucose spike depicted in the unsupplemented ingestion is not found with 10 g D-BetaHydroxyButyric Acid accompaniment. […] As free D-BetaHydroxyButyric Acid can lower glucose while rapidly increasing ketone levels, it is believed that obtaining high ketones while lowering glucose will yield additional anti-depression benefits to high glucose sensitive individuals suffering from depression.

The conditions of series [6]: previously known exogenous ketone compounds, from literature; cited from earlier work.

As to `CN(C)CCc1c[nH]c2cccc(OP(=O)(O)O)c12` [Comp360], the “Outcome in treatment-resistant depression” value in series [1] is “promising results”.
Consider `CC(O)CC(=O)O` [D-BHB, D-Beta-HydroxyButyric Acid], for which, in series [2], the “Reduction of anxiety and depression” value was “often benefit”. In series [3], the Deep sleep quantity entry is recorded as “enhance the quantity of deep sleep obtained”. Besides, the “Increase in body ketone level” value in series [3] (CKM) is 1.5 mmol/L. For the same molecule, the “Time to rapid ketosis” value in series [4] (10 g D-BHB with palatability agent) was at most 45 min. Besides, the “Blood ketone level after administration” value is 1.8 mmol/L in series [4] (10 g D-BHB with palatability agent, test subject rising from 0.2 mmol/L); 1.9 mmol/L in series [4] (10 g D-BHB with palatability agent, test subject rising from 0.6 mmol/L); 2.7 mmol/L in series [4] (15 g D-BHB with palatability agent, rise from 0.1 mmol/L). In addition, the “Rapid glucose spike after carbohydrate ingestion” value in series [5] was “not found”.
With `C[C@@H](O)CCOC(=O)C[C@@H](C)O` [ketone ester, (R)-3-hydroxybutyl (R)-3-hydroxybutyrate], in series [6], the “Ketone increase (blood level)” value is reported as “higher ketone level response”.
